Experimental data as given in patent US8147838B2, “Peptide” (priority 2005, dated 2012).
No end group written: not given here.

Key:
[1] = biological target: MHC class I allele A*0101 (A1) (Homo sapiens, UniProt P04439, A114D/A174V/A182V/D101N/D185E/E176A/E190D/L180R/Q94H/R68K/S129P/T187R/V100A/V91M/W191G); test: iScore multi-parametric analysis, A*0101; type: binding; settings: for iScore, MHC Class I Molecule A*0101: level of binding: >0.5, 0.25-0.5, <0.25
Procedure: (§1) Finally, multiparametric analysis is performed on the results from these assays and an iScore is generated. The iScore represents a measure of the overall quality of peptide-MHC binding, enabling candidate peptides to be ranked in order of binding quality and allowing rational prioritisation of peptides for functional cellular follow-up studies.
(§2) As part of the validation of the iTopia system, a panel of overlapping peptides derived from the CMV pp 65 protein were used and their binding properties for the A*0201 allele analysed. A number of T cell epitopes restricted by HLA A*0201 had already been identified (by more conventional methodologies) by other researchers for this protein. In the iTopia study, it was reported that an iScore of: >0.5 represented “good quality binding”; between 0.25 and 0.5 represented “medium quality binding”; and <0.25 represented “poor quality binding”. Six of the 20 peptides which gave a “good” iScore (>0.5) for A*0201, represented previously characterised CMV pp 65 A*0201 epitopes.
(§3) Each MHC class I allele has different binding properties and affinities for peptides which they bind. Therefore, information obtained with HLA A*0201 in which peptides are ranked as good, medium or poor binders using >0.5, 0.25-0.5 and <0.25 as thresholds is not necessarily transferable between alleles. Also, different proteins are likely to have distinct immunogenic profiles and the affinities between peptides and MHC class I molecules will be different between proteins. This may be particularly relevant in the case of self-antigens where immunogenicity is likely to be lower than in foreign proteins.
(§4) Multi-parametric analysis permits the integration of half-life and ED50 parameters in an integrated iScore. This reflects the capability of a peptide to reconstitute with MHC molecules in a stable complex, defining its overall level of binding i.e. the iScore value represents the overall quality of peptide-MHC binding and is used to rank candidate peptides as an indicator of functional relevance. The lead candidate epitopes for each allele are selected for cellular functional analysis to confirm their biological relevance.
(§5) The changes in gradient of the graphs in FIGS. 7 to 10 are indicated by a line which delineates the populations of iScores forming the basis of discrimination for further functional studies.

[2] = biological target: MHC class I allele A*0301 (A3) (Homo sapiens, UniProt P04439); test: iScore multi-parametric analysis, A*0301; type: binding; settings: level of binding: >0.5, 0.25-0.5, <0.25
Procedure: as §1, §2, §3, §4, §5

[3] = biological target: MHC class I allele B*0702 (B7) (Homo sapiens, UniProt P01889); test: iScore multi-parametric analysis, B*0702; settings: level of binding: >0.5, 0.25-0.5, <0.25
Procedure: as §1
As part of the validation of the iTopia system, a panel of overlapping peptides derived from the CMV pp 65 protein were used and their binding properties for the A*0201 allele analysed. A number of T cell epitopes restricted by HLA A*0201 had already been identified (by more conventional methodologies) by other researchers for this protein. In the iTopia study, it was reported that an iScore of: >0.5 represented “good quality binding”; between 0.25 and 0.5 represented “medium quality binding”; and <0.25 represented “poor quality binding”.
as §4

[4] = biological target: MHC class I allele A*0201 (A2) (Homo sapiens, UniProt P04439, D140Y/D185E/D98H/E176V/E277Q/G131W/G231S/I119V/I121R/I166T/I218V/L300P/L318F/N151K/N90K/P208A/P217A/Q86G/Q94H/R138H/R169H/T345S); test: iScore multi-parametric analysis, A*0201; type: binding; settings: level of binding: >0.5, 0.25-0.5, <0.25
Procedure: as §1, §2, §3, §4, §5

iScore, MHC Class I Molecule A*0101 [1]	iScore, MHC Class I Molecule A*0301 [2]	iScore, MHC Class I Molecule B*0702 [3]	iScore, MHC Class I Molecule A*0201 [4]	iScore (iTopia), A*0101 ([1]; integrates half-life and ED50)	Sequence
0	0	0	0.08		RDACRDHME [Peptide 195]
0	0	0	0.032		RGPAAGDGR [Peptide 4]
0	0	0	0.029		RHLDLSNNS [Peptide 119]
0	0.057	0.032	0.422		RLDEVRAGA [Peptide 65]
0	0	0	0.072		RNLTHLESL [Peptide 128]
0	0	0	0.189		RSFEGMVVA [Peptide 97]
0	0	0	0.045		SASSFSSSA [Peptide 19]
0	0	0	0.561		SLQTSYVFL [Peptide 176]
0	0	0	0.03		SLRHLDLSN [Peptide 118]
0	0	0	0.206		SLVSLTYVS [Peptide 123]
0	0	0	0.154		SNASVSAPS [Peptide 83]
0	0.084	0	0.051		SNHFLYLPR [Peptide 110]
0	0	0	0.094		SPLVELILN [Peptide 87]
0	0	0.335	0		SPTSSASSF [Peptide 17]
0	0	0	0.389		SSAPFLASA [Peptide 22]
0	0	0	0.037		SSFSSSAPF [Peptide 20]
0	0	0.045	0.118		SYVFLGIVL [Peptide 178]

iScore, MHC Class I Molecule A*0101 [1]	iScore, MHC Class I Molecule A*0301 [2]	iScore, MHC Class I Molecule B*0702 [3]	iScore, MHC Class I Molecule A*0201 [4]	iScore (iTopia), A*0101 ([1]; integrates half-life and ED50)	Sequence
0	0	0	0.083		TLAELQGLP [Peptide 139]
0	0	0	0.037		TSSASSFSS [Peptide 18]
0	0	0	0.184		TWLKETEVV [Peptide 154]
0	0	0	0.239		VFLDNNPWV [Peptide 145]
0	0	0	0.606		VFLGIVLAL [Peptide 179, VFLGIVLAL]
0	0.023	0	0.113		VLAQLPSLR [Peptide 115]
0	0	0	0.105		VLLELNSAD [Peptide 167]
0	0.027	0	0.081		VLPAGAFAR [Peptide 53]
0	0.014	0.164	0.095		VLYLNRKGI [Peptide 187]
0.098	0	0	0.059	0.098	VPTDLPAYV [Peptide 43]
0	0	0.085	0		VRAGAFEHL [Peptide 67]
0	0.025	0	0		VSLTYVSFR [Peptide 124]
0	0	0	0.077		YEINADPRL [Peptide 202]
0	0.065	0.089	0.118		YLNRKGIKK [Peptide 188]
0	0	0.242	0		YPEKMRNRV [Peptide 163]
0	0.086	0.21	0		YVSFRNLTH [Peptide 126]
